This passage reports remaining activity results from paper PMC8286840, “Identifying SARS-CoV-2 antiviral compounds by screening for small molecule inhibitors of Nsp3 papain-like protease” (Biochemical Journal, 2021).

The target in test [1] is T1, SARS-CoV-2 PLpro (nsp3 1564–1878) (Severe acute respiratory syndrome coronavirus 2, UniProt P0DTD1). In words: biochemical. Also on record: FRET-quenched peptide (Pro3) cleavage by PLpro, 10 min pre-incubation, slope over 20 min, normalised to no-compound control.
For test [2], the target named is T1, SARS-CoV-2 PLpro (nsp3 1564–1878). In words: biochemical. Also on record: FRET-quenched peptide (Pro3) cleavage by PLpro, 10 min pre-incubation, slope over 20 min, normalised to no-compound control. This is another data set of the same source.
The mark [3] stands for this setting: read-out: % of control remaining.

Counter-ions that a name gives are not always drawn. Like-named read-outs stand apart in the source and are kept apart here.

Turning to `NC(CO)C(=O)NNCc1ccc(O)c(O)c1O` (centres unmarked) [Benserazide], the remaining activity at 3.75 µM in test [1] (Well no.=1903, high concentration screen, read-out: % of control remaining) stood at 97.7%. Also, the remaining activity at 1.25 µM in test [2] (Well no.=1903, low concentration screen, read-out: % of control remaining) stood at 97.8%.

Consider `NC(=O)c1ccccc1` [Benzamide], for which the remaining activity at 3.75 µM in test [1] (Well no.=358, high concentration screen, read-out: % of control remaining) was determined as 95.9%. In test [2] (Well no.=358, low concentration screen, read-out: % of control remaining), the remaining activity at 1.25 µM was 96.5%.

Regarding `N=C(N)c1ccccc1` [Benzamidine hydrochloride], in test [1] (Well no.=223, high concentration screen, read-out: % of control remaining), the remaining activity at 3.75 µM stood at 99%. Moreover, the remaining activity at 1.25 µM in test [2] (Well no.=223, low concentration screen, read-out: % of control remaining) stood at 99.2%.

On to `N/C(=N\C(=O)c1nc(Cl)c(N)nc1N)NCc1ccccc1` [Benzamil hydrochloride], for which, in test [1] (Well no.=267, high concentration screen, read-out: % of control remaining), the remaining activity at 3.75 µM was 92.2%. The remaining activity at 1.25 µM in test [2] (Well no.=267, low concentration screen, read-out: % of control remaining) was determined as 95.3%.

For `N/C(=N\C(=O)c1nc(Cl)c(N)nc1N)NCc1ccccc1` [Benzamil], the remaining activity at 3.75 µM in test [1] (Well no.=2050, high concentration screen, read-out: % of control remaining) came out at 104%. Moreover, the remaining activity at 1.25 µM in test [2] (Well no.=2050, low concentration screen, read-out: % of control remaining) came out at 104%.

With `CCc1oc2ccccc2c1C(=O)c1cc(Br)c(O)c(Br)c1` [Benzbromarone], in test [1] (Well no.=8442, high concentration screen, read-out: % of control remaining), the remaining activity at 3.75 µM amounted to 85.1%. Further, in test [2] (Well no.=8442, low concentration screen, read-out: % of control remaining), the remaining activity at 1.25 µM was determined as 86.8%.

Turning to `NS(=O)(=O)c1ccccc1` [Benzenesulfonamide], the remaining activity at 3.75 µM in test [1] (Well no.=8398, high concentration screen, read-out: % of control remaining) came out at 101%. Besides, in test [2] (Well no.=8398, low concentration screen, read-out: % of control remaining), the remaining activity at 1.25 µM was 97.6%.

Turning to `O=C1CCC(c2ccccc2)(C2CCN(Cc3ccccc3)CC2)C(=O)N1` (centres unmarked) [Benzetimide (hydrochloride)], in test [1] (setting [3]), the remaining activity at 3.75 µM was determined as 97.6%. The remaining activity at 1.25 µM in test [2] (setting [3]) was 99.9%.

Consider `C[C@@]12C[C@@]3(O)O[C@@H](O1)[C@]1(COC(=O)c4ccccc4)[C@H]3C[C@@]12O[C@@H]1O[C@H](COC(=O)c2ccccc2)[C@@H](O)[C@H](O)[C@H]1O` [Benzoylpaeoniflorin], for which the remaining activity at 3.75 µM in test [1] (Well no.=6394, high concentration screen, read-out: % of control remaining) worked out at 98.2%. For the same compound, the remaining activity at 1.25 µM in test [2] (Well no.=6394, low concentration screen, read-out: % of control remaining) came out at 101%.

`NS(=O)(=O)c1cc2c(cc1Cl)N=C(CSCc1ccccc1)NS2(=O)=O` [Benzthiazide]: in test [1] (Well no.=8586, high concentration screen, read-out: % of control remaining), the remaining activity at 3.75 µM is 93.6%. Moreover, the remaining activity at 1.25 µM in test [2] (Well no.=8586, low concentration screen, read-out: % of control remaining) came out at 98.4%.

Consider `CN1[C@@H]2CC[C@H]1C[C@@H](OC(c1ccccc1)c1ccccc1)C2` [Benztropine (mesylate)], for which the remaining activity at 3.75 µM in test [1] (Well no.=8235, high concentration screen, read-out: % of control remaining) is 99.9%. For the same compound, in test [2] (Well no.=8235, low concentration screen, read-out: % of control remaining), the remaining activity at 1.25 µM is 100%.

`CN1[C@@H]2CC[C@H]1C[C@@H](OC(c1ccccc1)c1ccccc1)C2` [Benztropine mesylate]: in test [1] (Well no.=177, high concentration screen, read-out: % of control remaining), the remaining activity at 3.75 µM came to 104%. Besides, the remaining activity at 1.25 µM in test [2] (Well no.=177, low concentration screen, read-out: % of control remaining) was 104%.

For `CN(C)CCCOc1nn(Cc2ccccc2)c2ccccc12` [Benzydamine], in test [1] (Well no.=2302, high concentration screen, read-out: % of control remaining), the remaining activity at 3.75 µM was 96.1%. The remaining activity at 1.25 µM in test [2] (Well no.=2302, low concentration screen, read-out: % of control remaining) was determined as 95.4%.

For `O=C(O)CCCN1CCC(O[C@@H](c2ccc(Cl)cc2)c2ccccn2)CC1` [Bepotastine (Beslilate)], the remaining activity at 3.75 µM in test [1] (Well no.=6333, high concentration screen, read-out: % of control remaining) came out at 93.3%. Moreover, the remaining activity at 1.25 µM in test [2] (Well no.=6333, low concentration screen, read-out: % of control remaining) was 97.3%.

For `O=C(O)CCCN1CCC(O[C@@H](c2ccc(Cl)cc2)c2ccccn2)CC1` [Bepotastine Besilate], the remaining activity at 3.75 µM in test [1] (Well no.=5267, high concentration screen, read-out: % of control remaining) was 91.2%. In addition, the remaining activity at 1.25 µM in test [2] (Well no.=5267, low concentration screen, read-out: % of control remaining) came to 91.9%.

For `COc1c2ccoc2cc2oc(=O)ccc12` [Bergapten], in test [1] (Well no.=3789, high concentration screen, read-out: % of control remaining), the remaining activity at 3.75 µM is 87%. For the same compound, in test [2] (Well no.=3789, low concentration screen, read-out: % of control remaining), the remaining activity at 1.25 µM turned out to be 92.7%.

`COc1c(O)cc2c(c1O)[C@@H]1O[C@H](CO)[C@@H](O)[C@H](O)[C@H]1OC2=O` [Bergenin]: the remaining activity at 3.75 µM in test [1] (Well no.=3517, high concentration screen, read-out: % of control remaining) stood at 107%. Also, in test [2] (Well no.=3517, low concentration screen, read-out: % of control remaining), the remaining activity at 1.25 µM is 103%.

Regarding `O=S(=O)(O)c1cc(O)c2c(N=Nc3c(S(=O)(=O)O)cc4cc(S(=O)(=O)O)cc(O)c4c3O)cc(S(=O)(=O)O)cc2c1` [Beryllon II], the remaining activity at 3.75 µM in test [1] (Well no.=7982, high concentration screen, read-out: % of control remaining) is 93.7%. In addition, in test [2] (Well no.=7982, low concentration screen, read-out: % of control remaining), the remaining activity at 1.25 µM turned out to be 92.8%.

`CC(C)C[C@H](NC(=O)[C@@H](O)[C@H](N)Cc1ccccc1)C(=O)O` [Bestatin hydrochloride]: the remaining activity at 3.75 µM in test [1] (Well no.=273, high concentration screen, read-out: % of control remaining) was found to be 97.1%. In test [2] (Well no.=273, low concentration screen, read-out: % of control remaining), the remaining activity at 1.25 µM turned out to be 96.2%.

Consider `CC(C)C[C@H](NC(=O)[C@@H](O)[C@H](N)Cc1ccccc1)C(=O)O` [Bestatin], for which the remaining activity at 3.75 µM in test [1] (Well no.=8068, high concentration screen, read-out: % of control remaining) came to 97.8%. Also, the remaining activity at 1.25 µM in test [2] (Well no.=8068, low concentration screen, read-out: % of control remaining) was determined as 98.5%.

Regarding `CNCCc1ccccn1` [Betahistine 2HCl], the remaining activity at 3.75 µM in test [1] (Well no.=5026, high concentration screen, read-out: % of control remaining) worked out at 98.9%. The remaining activity at 1.25 µM in test [2] (Well no.=5026, low concentration screen, read-out: % of control remaining) turned out to be 97.2%.

`CNCCc1ccccn1` [Betahistine (dihydrochloride)]: the remaining activity at 3.75 µM in test [1] (Well no.=6621, high concentration screen, read-out: % of control remaining) stood at 92.4%. Besides, in test [2] (Well no.=6621, low concentration screen, read-out: % of control remaining), the remaining activity at 1.25 µM amounted to 98.5%.

With `C[N+](C)(C)CC=O` [Betaine aldehyde chloride], the remaining activity at 3.75 µM in test [1] (Well no.=125, high concentration screen, read-out: % of control remaining) turned out to be 102%. The remaining activity at 1.25 µM in test [2] (Well no.=125, low concentration screen, read-out: % of control remaining) is 96.6%.

`C[N+](C)(C)CC(=O)O` [Betaine hydrochloride]: the remaining activity at 3.75 µM in test [1] (Well no.=77, high concentration screen, read-out: % of control remaining) was 103%. Besides, the remaining activity at 1.25 µM in test [2] (Well no.=77, low concentration screen, read-out: % of control remaining) was found to be 101%.

On to `CCC(=O)OCC(=O)[C@@]1(OC(=O)CC)[C@@H](C)C[C@H]2[C@@H]3CCC4=CC(=O)C=C[C@]4(C)[C@@]3(F)[C@@H](O)C[C@@]21C` [Betamethasone dipropionate], for which, in test [1] (Well no.=7091, high concentration screen, read-out: % of control remaining), the remaining activity at 3.75 µM came to 98.8%. Also, the remaining activity at 1.25 µM in test [2] (Well no.=7091, low concentration screen, read-out: % of control remaining) amounted to 93.4%.

Consider `CCCCC(=O)O[C@]1(C(=O)CO)[C@@H](C)C[C@H]2[C@@H]3CCC4=CC(=O)C=C[C@]4(C)[C@@]3(F)[C@@H](O)C[C@@]21C` [Betamethasone valerate], for which the remaining activity at 3.75 µM in test [1] (Well no.=5651, high concentration screen, read-out: % of control remaining) amounted to 97.2%. Moreover, the remaining activity at 1.25 µM in test [2] (Well no.=5651, low concentration screen, read-out: % of control remaining) was 94.9%.

In the case of `C[C@H]1C[C@H]2[C@@H]3CCC4=CC(=O)C=C[C@]4(C)[C@@]3(F)[C@@H](O)C[C@]2(C)[C@@]1(O)C(=O)CO` [Betamethasone], the remaining activity at 3.75 µM in test [1] (read-out: % of control remaining, Well no.=271, high concentration screen) was determined as 95.6%; in test [1] (read-out: % of control remaining, Well no.=2171, high concentration screen), 93.7%; in test [1] (read-out: % of control remaining, Well no.=6566, high concentration screen) it was 95.4%. In addition, the remaining activity at 1.25 µM turned out to be 97.7% in test [2] (read-out: % of control remaining, Well no.=271, low concentration screen); 93.5% in test [2] (read-out: % of control remaining, Well no.=2171, low concentration screen); 94.8% in test [2] (read-out: % of control remaining, Well no.=6566, low concentration screen).

In the case of `CC(C)NCC(O)COc1ccc(CCOCC2CC2)cc1` (centres unmarked) [Betaxolol (hydrochloride)], the remaining activity at 3.75 µM in test [1] (Well no.=6849, high concentration screen, read-out: % of control remaining) is 102%. In test [2] (Well no.=6849, low concentration screen, read-out: % of control remaining), the remaining activity at 1.25 µM is 107%.

Turning to `CC(C)NCC(O)COc1ccc(CCOCC2CC2)cc1` (centres unmarked) [Betaxolol hydrochloride], the remaining activity at 3.75 µM in test [1] (Well no.=175, high concentration screen, read-out: % of control remaining) is 101%. In addition, in test [2] (Well no.=175, low concentration screen, read-out: % of control remaining), the remaining activity at 1.25 µM was 102%.

Turning to `CC(C)NCC(O)COc1ccc(CCOCC2CC2)cc1` (centres unmarked) [Betaxolol.HCl], the remaining activity at 3.75 µM in test [1] (Well no.=1735, high concentration screen, read-out: % of control remaining) is 99.8%. In test [2] (Well no.=1735, low concentration screen, read-out: % of control remaining), the remaining activity at 1.25 µM was 99.1%.

Take `CC(C)NCC(O)COc1ccc(CCOCC2CC2)cc1` (centres unmarked) [Betaxolol]: the remaining activity at 3.75 µM in test [1] (Well no.=6177, high concentration screen, read-out: % of control remaining) was found to be 97.1%. The remaining activity at 1.25 µM in test [2] (Well no.=6177, low concentration screen, read-out: % of control remaining) worked out at 104%.

For `CC(C[N+](C)(C)C)OC(N)=O` (centres unmarked) [Bethanechol (chloride)], the remaining activity at 3.75 µM in test [1] (Well no.=7565, high concentration screen, read-out: % of control remaining) was 92.1%. In addition, in test [2] (Well no.=7565, low concentration screen, read-out: % of control remaining), the remaining activity at 1.25 µM came out at 99.8%.
